Legend:
Type in all cases: in vivo
[1] = tested on: sugarcane; assay: Example 2: sugar content of sugarcane stem juice after spraying from an aircraft, field test in Brazil; settings: after 30 days of spraying
Experimental: (§1) In accordance with “NORMAS DE AVALIAçÃO DA […] DA CANA-DE-AçÚCAR” used in Brazilian sugar refining plants as Standard for quality evaluation of sugarcane, the analysis on the sugar content in the squeezed juice of sugarcane stem was carried out for Brix value, sugar content in sugarcane (PC), and total sugar amount recoverable from sugarcane stem (ATR) as follows.
(§2) Brix was measured according to a digital refractometer. PC was calculated according to the equation (1). ATR was calculated according to the equation (5).
At the time the Brix value of sugarcane grown in a sugarcane cultivated area in Brazil (an average Brix value in the harvesttime being 21%) became 81% of the aforesaid average Brix value, a bispyribac-sodium formulation (a commercially available product, a tradename “NOMINEE 400SC”) was diluted with water so that the amount of the effective ingredient in 30 liters of the spraying liquid could be equal to the used amount shown in Table 3, and the liquid was sprayed over the test area from an air-craft at a rate of 30 liters per hectare.
In a control area, a known fluazifop formulation (a commercially available product, a tradename “[…]”) was similarly sprayed.
Next, 5 individual sugarcanes were cut from 5 locations in each area, i.e. 25 sugarcanes from each area, on the initial day of spraying and after 30 days of spraying, and thereafter the stems were squeezed and sugar was recovered from the juice to obtain the yield. The yield after 30 days of spraying was compared with the yield of the initial day of spraying and the rate of increase (%) was calculated. The analysis on the sugar content in the squeezed juice of sugarcane stems was carried out similarly as in the case of Example 1.

[2] = tested on: sugarcane; assay: Example 5: sugar content of sugarcane stem juice after bispyribac-sodium and/or gibberellin spraying, field test in Brazil; settings: 20 g/ha
Experimental: as §1, §2
At the time the Brix value of sugarcane grown in a sugarcane cultivated area in Brazil (an average Brix value in the harvesttime being 18%) became 88% of the aforesaid average Brix value, a bispyribac-sodium formulation (a commercially available product, a tradename, “NOMINEE 400SC”) and a gibberellin formulation (a commercially available product, a tradename, “PRO-GIBB”) were admixed together and diluted with water or separately diluted with water so that the amount of the effective ingredient in 105 liters of each of the spraying liquids could be equal to the used amount shown in Table 8, and each liquid was sprayed above the plant by the aid of a CO2-pressurized back pack sprayer to the test area at a rate of 105 liters per hectare.
(§3) In a control area, a known sulfometuron-methyl formulation (a commercially available product, a tradename “CURAVIAL”) was similarly sprayed.
(§4) Next, 20 individual sugarcanes were cut from each area on the initial day of spraying, after 15 days of spraying, after 30 days of spraying and after 45 days of spraying, and thereafter the stems were squeezed and sugar was recovered from the juice to obtain the yield. Each yield was compared with the yield of the initial day of spraying and the rate of increase (%) was calculated. The analysis on the sugar content in the squeezed juice of sugarcane stems was carried out similarly as in the case of Example 1.

[3] = tested on: sugarcane; assay: Example 1: sugar content of sugarcane stem juice after power-sprayer application, field test in Brazil
Experimental: With respect to sugarcane grown in a sugarcane cultivated area in Brazil (an average Brix value in the harvesttime being 18%), a juice was collected from 5 middle internodes selected at random in the sugarcane stem and the Brix value was measured according to a usual method. At the time the measured Brix value became 82% of the aforementioned average Brix value, a bispyribac-sodium formulation (a commercially available product, a tradename “NOMINEE 400SC”) was diluted with water so that the amount of the effective ingredient in 74 liters of the spraying liquid could be equal to the used amount shown in Table 1. The liquid was then sprayed above the plant by the aid of a power sprayer to a test area at a rate of 74 liters per hectare.
as §3
Next, 10 individual sugarcanes were cut from each area on the initial day of spraying, after 30 days of spraying and after 45 days of spraying, and thereafter the stem was squeezed and sugar was recovered from the juice to obtain the yield. Each yield was compared with the yield of the initial day of spraying and the rate of increase (%) was calculated.
as §1, §2
S denotes a sugar content in the extracted liquid and is calculated according to the equation (2). F denotes an amount of fibers in sugarcane and is calculated according to the equation (3). C denotes a conversion coefficient from the sugar content in the extracted liquid to an absolute amount and is calculated according to the equation (4).
LAI denotes a measured value by the digital saccharimeter after clarification of the juice by a clarifying mixture made from aluminum.
PBU denotes the mass of a wet bagasse exhausted from a pressing machine in the squeezed step of sugarcane stem.
ARC denotes an amount of reducing sugar of sugarcane and is calculated from the following equation (6).
AR denotes an amount of reducing sugar in the extracted liquid and is calculated from the following equation (7).

[4] = tested on: sugarcane; assay: Example 6: sugar content of sugarcane stem juice after bispyribac-sodium + prohexadione-calcium spraying, field test in Brazil; settings: 200 g/ha
Experimental: as §1, §2
At the time the Brix value of sugarcane grown in a sugarcane cultivated area in Brazil (an average Brix value in the harvesttime being 20%) became 80% of the aforesaid average Brix value, a bispyribac-sodium formulation (a commercially available product, a tradename, “NOMINEE 400SC”) and a prohexadione-calcium formulation (a tradename, “VIVIFUL”) were admixed together and diluted with water so that the amount of the effective ingredient in 105 liters of each spraying liquid could be equal to the used amount shown in Table 10, and the liquid was sprayed above the plant by the aid of a CO2-pressurized back pack sprayer to the test area at a rate of 105 liters per hectare.
In a control area, a known trinexapac-ethyl formulation (a commercially available product, a tradename “MODDUS”) was similarly sprayed.
as §4

[5] = 16 g/ha, after 30 days of spraying
[6] = 16 g/ha, after 45 days of spraying
[7] = 35 g/ha, after 30 days of spraying
[8] = 35 g/ha, after 45 days of spraying

COc1cc(OC)nc(Oc2cccc(Oc3nc(OC)cc(OC)n3)c2C(=O)O)n1 [Bispyribac-sodium]
ATR increased rate from the initial day of spraying ([1]; 25 g/ha): 22.3%
Brix increased rate from the initial day of spraying ([1]; 25 g/ha): 19.8%
Concentration of soluble solid matter, Brix ([1]; 25 g/ha): 19.9%
PC increased rate from the initial day of spraying ([1]; 25 g/ha): 24.1%
Sugar content in sugarcane, PC ([1]; 25 g/ha): 14.6%
Total sugar amount recoverable from 1 kg of stem, ATR ([1]; 25 g/ha): 141.8 g
ATR increased rate from the initial day of spraying ([1]; 30 g/ha): 22.1%
Brix increased rate from the initial day of spraying ([1]; 30 g/ha): 21.6%
Concentration of soluble solid matter, Brix ([1]; 30 g/ha): 20.8%
PC increased rate from the initial day of spraying ([1]; 30 g/ha): 25.2%
Sugar content in sugarcane, PC ([1]; 30 g/ha): 15.6%
Total sugar amount recoverable from 1 kg of stem, ATR ([1]; 30 g/ha): 149.0 g
ATR increased rate from the initial day of spraying ([2]; after 15 days of spraying): 6.2%
Brix increased rate from the initial day of spraying ([2]; after 15 days of spraying): 4.5%
Concentration of soluble solid matter, Brix ([2]; after 15 days of spraying): 16.2%
Total sugar amount recoverable from 1 kg of stem, ATR ([2]; after 15 days of spraying): 112.5 g
ATR increased rate from the initial day of spraying ([2]; after 30 days of spraying): 17.3%
Brix increased rate from the initial day of spraying ([2]; after 30 days of spraying): 11.7%
Concentration of soluble solid matter, Brix ([2]; after 30 days of spraying): 17.3%
Total sugar amount recoverable from 1 kg of stem, ATR ([2]; after 30 days of spraying): 124.2 g
ATR increased rate from the initial day of spraying ([2]; after 45 days of spraying): 19.1%
Brix increased rate from the initial day of spraying ([2]; after 45 days of spraying): 12.9%
Concentration of soluble solid matter, Brix ([2]; after 45 days of spraying): 17.5%
Total sugar amount recoverable from 1 kg of stem, ATR ([2]; after 45 days of spraying): 126.1 g
ATR increased rate from the initial day of spraying [3, 5]: 23.1%
Brix increased rate from the initial day of spraying [3, 5]: 23.0%
Concentration of soluble solid matter, Brix [3, 5]: 18.4%
PC increased rate from the initial day of spraying [3, 5]: 25.7%
Sugar content in sugarcane, PC [3, 5]: 13.0%
Total sugar amount recoverable from 1 kg of stem, ATR [3, 5]: 129.7 g
ATR increased rate from the initial day of spraying [3, 6]: 44.9%
Brix increased rate from the initial day of spraying [3, 6]: 41.0%
Concentration of soluble solid matter, Brix [3, 6]: 21.1%
PC increased rate from the initial day of spraying [3, 6]: 50.9%
Sugar content in sugarcane, PC [3, 6]: 15.5%
Total sugar amount recoverable from 1 kg of stem, ATR [3, 6]: 152.7 g
ATR increased rate from the initial day of spraying [3, 7]: 32.0%
Brix increased rate from the initial day of spraying [3, 7]: 29.5%
Concentration of soluble solid matter, Brix [3, 7]: 20.5%
PC increased rate from the initial day of spraying [3, 7]: 35.9%
Sugar content in sugarcane, PC [3, 7]: 14.7%
Total sugar amount recoverable from 1 kg of stem, ATR [3, 7]: 145.1 g
ATR increased rate from the initial day of spraying [3, 8]: 42.1%
Brix increased rate from the initial day of spraying [3, 8]: 37.1%
Concentration of soluble solid matter, Brix [3, 8]: 21.7%
PC increased rate from the initial day of spraying [3, 8]: 47.6%
Sugar content in sugarcane, PC [3, 8]: 15.9%
Total sugar amount recoverable from 1 kg of stem, ATR [3, 8]: 156.2 g

CCOC(=O)C1CC(=O)C(=C(O)C2CC2)C(=O)C1 (stereo not drawn) [Trinexapac-ethyl, trinexapac-ethyl]
ATR increased rate from the initial day of spraying ([4]; after 15 days of spraying): 10.3%
Brix increased rate from the initial day of spraying ([4]; after 15 days of spraying): 8.0%
Concentration of soluble solid matter, Brix ([4]; after 15 days of spraying): 17.5%
Total sugar amount recoverable from 1 kg of stem, ATR ([4]; after 15 days of spraying): 125.3 g
ATR increased rate from the initial day of spraying ([4]; after 30 days of spraying): 18.0%
Brix increased rate from the initial day of spraying ([4]; after 30 days of spraying): 15.7%
Concentration of soluble solid matter, Brix ([4]; after 30 days of spraying): 18.8%
Total sugar amount recoverable from 1 kg of stem, ATR ([4]; after 30 days of spraying): 134.0 g
ATR increased rate from the initial day of spraying ([4]; after 45 days of spraying): 30.8%
Brix increased rate from the initial day of spraying ([4]; after 45 days of spraying): 24.7%
Concentration of soluble solid matter, Brix ([4]; after 45 days of spraying): 20.2%
Total sugar amount recoverable from 1 kg of stem, ATR ([4]; after 45 days of spraying): 148.5 g
